# Measured values from US6566399B2, “Inhibitor of replicative senescence of human keratinocytes containing retinoic acid as active ingredients” (priority 2000, dated 2003).
# Tests used:
# [1] = system: normal human oral keratinocytes (NHOK); assay: NHOK proliferation rate with all-trans retinoic acid (viable cell count by trypan blue exclusion); format: cell-based
# Protocol: NHOK were prepared from human gingival tissue specimens (Min B. -M. et al., Int. J. Oncol., […], 7, 249-256). The tissue samples obtained from four healthy volunteers (ages ranged from 18 to 30 years) were thoroughly washed three times with calcium and magnesium-free Hanks' balanced salt solution (CMF-HBSS; GibcoBRL). In order to separate the epithelial tissue from the underlying mucosa, the tissue scruples were incubated in CMF-HBSS containing collagenase type II (1.0 mg/ml; Sigma Chemical Co.) and dispase grade II (2.4 mg/ml; Boeringer-Mannheim) for 90 min at 37° C. in 95% air and 5% carbon dioxide Primary NHOK were prepared from separated oral epithelial tissue (Min B. -M. et al., Int. J. Oncol. 1995, 7, 249-256), and cultured in keratinocyte basal medium containing 0.15 mM calcium and supplementary growth factor bullet kit (KGM; Clonetics Corp.) as described above. […]
# To determine the effect of all-trans retinoic acid on cell proliferation, rapidly proliferating NHOK (PDL 18) were plated at 2×10^4 cells per well in a 24-well culture plate. […] The average number and standard deviation were calculated as the means of four independent experiments (FIG. 1a).
# [2] = system: normal human epidermal keratinocytes (NHEK); assay: NHEK proliferation rate with all-trans retinoic acid (viable cell count by trypan blue exclusion); format: cell-based
# Protocol: NHEK was prepared in the same manner as in the above example 1, except that tissue samples were taken from human foreskin tissue specimens of two healthy volunteers (ages ranged from 1 to 3 years).
# To determine the effect of all-trans retinoic acid on cell proliferation, rapidly proliferating NHEK (PDL 11) were plated at 2×10^4 cell per well in a 24-well plate and cultured until their cell density reached 40% (24 hours after the plating). The cultured cells were exposed to all-trans retinoic acid containing various concentrations, 1 nM, 10 nM, 100 nM, 500 nM, 1 μM, and 5 μM and harvested after 2 or 4 days of incubation to count the number of viable cells by trypan blue exclusion. The average number and standard deviation was calculated as above same procedure (FIG. 1b).
# [3] = system: senescent NHOK (PDL 22); assay: Senescence inhibition of senescent NHOK by SA-β-gal staining; format: cell-based, human; details: 1 nM, 21 days
# Excerpt: The senescent NHOK were positively stained by β-galactosidase (Dimri G. D. et al., Proc. Nat. Acad. Sci., 1995, 92, 9363-9367). Using such properties, the inhibition against senescence of all-trans retinoic acid-treated NHOK was examined. […]
# To ensure a representative count, each cell culture was divided into four equal parts and minimum two areas per each part were photographed with Olympus IMT-2 phase-contrast microscope, thus counting the cells. As the result, minimum 500 or more cells per each part were counted.
# After the senescent NHOK (PDL 22) were exposed to 1, 10, or 100 nM retinoic acid for 21 days the percentage (%) of senescent cells was obtained from SA-β-gal positive cell (%) versus total cells. The average percentage (%) and standard deviation were calculated from three independent experiments.
# [4] = system: NHOK; assay: Mitotic capacity of NHOK through continuous subculture (PDL, SA-β-gal); format: cell-based, human; details: 1 nM
# Protocol: (§1) At the end of each stage, the population doubling level of NHOK was calculated by the following equation 1: […]
# (§2) Wherein, N: PDL, Cf: total cell numbers obtained from the end of a passage, Ci: total cell numbers of attached cells at seeding.
# (§3) NOOK (PDL 15) showing rapid proliferation was cultured with 2×10^5 cell per 60-mm petri dish. In addition, NHEK (PDL 11) was cultured in the same manner as in the NHOK. The cells were divided into two groups, which were cultured in KGM containing vehicle (0.001% DMSO) or 1 nM all-trans retinoic acid until the cells reached 70% confluency, and then subcultured until they reached the postmitotic stage of cell proliferation. All-trans retinoic acid was used by dissolving it in DMSO and then diluting with KGM so as to have a final DMSO concentration of 0.001%. The PDL accumulated at the last stage of each subculture and the senescent cell numbers in the cultured NHOK and NHEK, that is to say, the percentage (%) of positive cells by SA-β-gal staining were determined. The cell pellet obtained after washing with 1X PBS was frozen at −70° C. for TRAP and Western blot analysis (see, FIGS. 3a, 3b, 3c, 4a, 4b, and 4c).
# [5] = system: NHEK; assay: Mitotic capacity of NHEK through continuous subculture (PDL, SA-β-gal); format: cell-based, human; details: 1 nM
# Protocol: as §1, §2, §3
# [6] = system: telomerase activity of NHOK; assay: Telomerase activity of NHOK by TRAP assay; format: cell-based, human; details: 1 nM
# Protocol: (§4) To investigate telomerase activity of NHOK and NHEK exposed to all-trans retinoic acid, the telomerase activity was determined using a TPAP-eze telomerase detection kit (Oncor Inc.), which, is based on the TRAP assay.
# (§5) More specifically, the frozen cell pellet in the above example 4 was dissolved in 200 μl of 1X CHAPS buffer (composition: 10 mM Tris-HCl pH 7.5, 1 mM MgCl2; 1 mM EDTA 0.5% 3[(3-cholamidopropyl)-dimethylammonium]-1-propanesulfonate, 10% glycerol, 5 mM β-mercaptoethanol and 0.1 mM benzamidine), incubated on ice for 30 minutes; and then centrifuged at 12,000 rpm for 30 minutes at 4° C. The separated supernatant was aliquoted and frozen on dry ice for TRAP assay.
# (§6) For TRAP analysis, 2 μl of cell lysate containing 1.0 μg of cellular proteins were added to 48 μl of solution including 1X TRAP reaction buffer [composition: 20 mM Tris-HCl (pH 8.3), 1.5 mM MgCl2, 63 mM KCl 0.005% Tween 20, and 1 mM EGTA], 50 μM of each of four types of deoxynucleotide triphosphates, 0.05 μg of TS primer end-labeled with 20 μCi of [γ^32-P] ATP (3000 Ci/mmol; Amersham Corp.), 1 μl of primer mix, and Taq DNA polymerase (Perkin-Elmer) 0.4 unity. […] The PCR products were run in 12.5% nondenaturing polyacrylamide gel in 1X Tris-borate EDTA for 90 minutes at 60 W. After drying the gel, the radioactive signal was detected by autoradiography.
# [7] = system: telomerase activity of NHEK; assay: Telomerase activity of NHEK by TRAP assay; format: cell-based, human; details: 1 nM
# Protocol: as §4, §5, §6
# [8] = system: pRb protein in NHOK; assay: pRb protein level in NHOK by Western blot; format: cell-based, human; details: 1 nM
# Protocol: (§7) To investigate the expression levels of pRb and p16^INK4A proteins in NHOK and NHEK that are exposed to all trans retinoic acid, Western blot analysis (Min B. -M. et al., Int. J. Oncol., 1995, 7, 249-256) was performed using anti-mouse Rb (IFB) monoclonal antibody and anti-human p16 (C-20) polyclonal antibody (Santa Cruz Biotechnology). After probing with each of the respective antibodies, the membrane was stained with 1X Ponceau S stain for 10 minutes to reveal the total protein loading per lane.
# [9] = system: p16^INK4A protein in NHOK; assay: p16^INK4A protein level in NHOK by Western blot; format: cell-based, human; details: 1 nM, at any given PDL number
# Protocol: as §7
# [10] = system: p16^INK4A protein in NHEK; assay: p16^INK4A protein level in NHEK by Western blot; format: cell-based, human; details: 1 nM, PDL 13.6-17.1
# Protocol: as §7
# [11] = Acute oral toxicity test of rat; details: Sprague-Dawley, in vivo, 1 g/kg/15 ml
# Protocol: To investigate the acute oral Toxicity test: Sprague-Dawley rats aged 6 weeks are used. Two rats per group were orally administered with all-trans retinoic acid and the 0.5% methyl cellulose solutions at a dose of 1 g/kg/15 ml one time. After administration, clinical symptoms, occurrence of death and the change of weight were observed. In addition, the rats were killed after administration, dissected, and celiac intestine and thoracic were examined with the unaided eye.
smiles,measurement,setting,value
CC1=C(/C=C/C(C)=C/C=C/C(C)=C/C(=O)O)C(C)(C)CCC1 [all-trans retinoic acid],"cell proliferation of NHOK, best of the test concentrations","[1]; 1 nM, among test concentrations 1 nM to 10 μM",maximally enhanced
same,cell proliferation of NHOK compared to the vehicle control,"[1]; NHOK (PDL 18), 1 or 10 nM, 2 or 4 days of incubation",noticeably increased
same,"cell proliferation of NHEK, best of the test concentrations","[2]; 1 nM, among test concentrations 1 nM to 5 μM",maximum cell proliferation
same,growth of NHEK,[2]; 1 μM or higher,restrained in their growth
same,cell proliferation of NHEK compared to the vehicle control,"[2]; NHEK (PDL 11), 1 nM, 2 or 4 days of incubation",notably increased
same,replicative senescence (SA-β-gal positive cells) compared to the vehicle control,[3],significantly inhibited
same,upper end of the log phase of cell proliferation (PDL),"[4]; serial subculture from PDL 15, vehicle: until PDL 20",26 PDL
same,PDL at which cells ceased to proliferate,"[4]; serial subculture, vehicle: PDL 22",28 PDL
same,upper end of the log phase of cell proliferation (PDL),"[5]; serial subculture from PDL 10.8, vehicle: until PDL 19.8",24.3 PDL
same,PDL up to which cells proliferated (no further proliferation),"[5]; serial subculture, vehicle: PDL 20.5",25.1 PDL
same,telomerase activity,[6]; PDL 27 and 28 (replicative senescence),almost undetectable
same,telomerase activity,[6]; at high PDL numbers,maintained or slightly increased
same,telomerase activity,[7]; PDL 24.3 and 25.1 (replicative senescence),hardly or almost undetected
same,telomerase activity,[7]; according to the increase of PDL,maintained
same,pRb protein level compared to the vehicle control,[8]; according to the increase of PDL (high PDL),higher levels
same,amount of pRb protein,[8]; early culture at PDL 18,extremely low
same,pRb protein level compared to the vehicle control of corresponding PDL,[8]; low PDL,much lower
same,intracellular p16^INK4A protein level compared to the vehicle control,[9],significantly lower
same,intracellular p16^INK4A protein level compared to the vehicle control,[10],much lower
same,LD50,[11],> 2000 mg/kg
